Where “and” joins values, the source holds several entries; their conditions need not be identical. Identical values can stand only once.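 Where inhibition never reached the appropriate level, the endpoint shown equals the highest concentration tested. Otherwise, values were interpolated linearly from a five-concentration, 48-hour dose response in 96-well plates. GI50 = concentration required for 50% inhibition of growth. TGI is the concentration that stops growth completely.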

Test systems include HT29 colon; HCT-15 colon; HOP-92 NSCLC; MDA-MB-231 breast; NCI-H522 lung; T-47D breast; EKVX NSCLC; OVCAR-3 ovarian; CCRF-CEM leukemia; 786-0 renal.
Holding throughout (test): NCI anticancer screen, dose series, 48 h

In the case of `Cc1ccc(S(=O)(=O)n2cc(C(=O)C(=O)Nc3ccncc3)c3ccccc32)cc1`, the GI50 is 0.464 µM with HT29 colon; 0.555 µM in the experiment with HCT-15 colon; 0.644 µM in the experiment on HOP-92 NSCLC; 5.92 µM in the experiment on MDA-MB-231 breast; 0.438 µM in the experiment on NCI-H522 lung; 4.93 µM in the experiment with T-47D breast. Also, the GI50 in the experiment on EKVX NSCLC is 3.23 µM; in the experiment with OVCAR-3 ovarian it was 0.765 µM; with CCRF-CEM leukemia, 4.53 µM; in the experiment with 786-0 renal, 3.89 µM. Besides, the TGI was 12.1 µM in the experiment with HT29 colon; > 100 µM in the experiment with HCT-15 colon; 7.01 µM in the experiment with HOP-92 NSCLC; > 100 µM with MDA-MB-231 breast; 12.9 µM in the experiment on NCI-H522 lung; > 100 µM with T-47D breast. For the same compound, the TGI in the experiment with EKVX NSCLC is > 100 µM; in the experiment on OVCAR-3 ovarian, 16.7 µM; with CCRF-CEM leukemia, > 100 µM; in the experiment on 786-0 renal, > 73.2 µM.

Regarding `CO[C@H](C(=O)N[C@@H](CCCCNC(=O)OCc1ccccc1)C(=O)OC(C)(C)C)[C@@H]1Cc2cc3cc(OC4CC(OC5CC(O)C(O)C(C)O5)C(O)C(C)O4)c(C)c(O)c3c(O)c2C(=O)[C@H]1OC1CC(OC2CC(OC3CC(C)(O)C(O)C(C)O3)C(O)C(C)O2)C(O)C(C)O1` (some centres not stated), the GI50 in the experiment on HT29 colon is 0.508 µM; with HCT-15 colon, 2.55 µM; with HOP-92 NSCLC, 0.443 µM; with MDA-MB-231 breast it was 0.939 µM; in the experiment on NCI-H522 lung it was 0.687 µM; in the experiment on T-47D breast, 0.958 µM. Besides, the GI50 in the experiment on EKVX NSCLC was 1.17 µM; in the experiment on OVCAR-3 ovarian it was 1.39 µM; in the experiment on CCRF-CEM leukemia, 0.404 µM; in the experiment with 786-0 renal, 0.563 µM. For the same compound, the TGI in the experiment on HT29 colon is > 10 µM; with HCT-15 colon, > 10 µM; in the experiment with HOP-92 NSCLC, 1.97 µM; with MDA-MB-231 breast it was 3.1 µM; in the experiment with NCI-H522 lung, 3.15 µM; with T-47D breast, > 10 µM. In addition, the TGI was 3.1 µM in the experiment on EKVX NSCLC, > 10 µM in the experiment on OVCAR-3 ovarian, 5.07 µM in the experiment on CCRF-CEM leukemia and 1.88 µM in the experiment on 786-0 renal.

`Cc1ccc2sc3c(NCCCNCCO)nc4ccccc4c3c(=O)c2c1`: the GI50 in the experiment on HT29 colon is 1.67 µM; in the experiment with HCT-15 colon, 1.48 µM; with HOP-92 NSCLC, 1.28 µM; with MDA-MB-231 breast, 1.56 µM; in the experiment on NCI-H522 lung, 1.66 µM; in the experiment on T-47D breast it was 1.59 µM. In addition, the GI50 was 1.61 µM in the experiment on EKVX NSCLC, 1.75 µM in the experiment on OVCAR-3 ovarian, 1.35 µM with CCRF-CEM leukemia and 1.7 µM in the experiment with 786-0 renal. In addition, the TGI in the experiment on HT29 colon amounted to 3.36 µM; in the experiment with HCT-15 colon, 2.92 µM; in the experiment with HOP-92 NSCLC it was 3.78 µM; in the experiment on MDA-MB-231 breast it was 3.04 µM; in the experiment on NCI-H522 lung it was 3.43 µM; in the experiment on T-47D breast it was 3.43 µM. The TGI amounted to 3.08 µM with EKVX NSCLC, 3.26 µM with OVCAR-3 ovarian, 2.97 µM with CCRF-CEM leukemia and 3.23 µM in the experiment with 786-0 renal.

`COC(=O)[C@@H](C)C[C@H](Cc1ccccc1)NC(=O)c1csc([C@@H](C[C@H](C(C)C)N(C)C(=O)[C@@H](NC(=O)[C@H]2CCCCN2C)C(C)C)OC(C)=O)n1`: the TGI in the experiment on HT29 colon is > 25 µM; with HCT-15 colon, > 25 µM; in the experiment on MDA-MB-231 breast, 0.0116 µM; in the experiment with NCI-H522 lung it was 0.000897 µM; in the experiment on T-47D breast, > 25 µM; in the experiment with EKVX NSCLC, > 25 µM. Moreover, the values for the TGI in the experiment on CCRF-CEM leukemia and in the experiment on 786-0 renal were > 25 µM and 24.5 µM, respectively. Further, the GI50 is 0.00031 µM and 0.0025 µM in the experiment with HCT-15 colon; 0.000692 µM and < 0.0025 µM in the experiment on HOP-92 NSCLC; 0.000506 µM and 0.0025 µM in the experiment with MDA-MB-231 breast; 0.000178 µM with NCI-H522 lung; > 25 µM in the experiment with T-47D breast; 0.000617 µM and 0.00356 µM with EKVX NSCLC. The GI50 was < 0.0001 µM in the experiment with OVCAR-3 ovarian; 0.000425 µM and 0.0025 µM in the experiment on CCRF-CEM leukemia; 0.000331 µM and 0.0025 µM in the experiment on 786-0 renal.

As to `COC(=O)Nc1nc2ccc(Oc3ccc(NC(=O)Nc4cccc(Cl)c4)cc3)cc2[nH]1`, the GI50 in the experiment with HT29 colon was 0.682 µM; in the experiment with HCT-15 colon, 0.815 µM; in the experiment on HOP-92 NSCLC, 0.853 µM; with MDA-MB-231 breast, 3.31 µM; in the experiment with NCI-H522 lung it was 0.543 µM; in the experiment with T-47D breast, 1.02 µM. For the same compound, the GI50 in the experiment on EKVX NSCLC is 3.71 µM; with OVCAR-3 ovarian, 0.768 µM; in the experiment on CCRF-CEM leukemia, 0.838 µM; in the experiment on 786-0 renal it was 1.87 µM. Further, the TGI is 3.48 µM in the experiment on HT29 colon; > 25 µM with HCT-15 colon; 5.47 µM in the experiment with HOP-92 NSCLC; 19.3 µM in the experiment on MDA-MB-231 breast; 4.07 µM in the experiment on NCI-H522 lung; 5.65 µM in the experiment on T-47D breast. In addition, the TGI in the experiment with EKVX NSCLC was > 25 µM; in the experiment on OVCAR-3 ovarian, 2.23 µM; in the experiment on CCRF-CEM leukemia it was > 15 µM; with 786-0 renal it was 8.28 µM.

As to `C[C@]12CCC(=O)C=C1CC[C@@H]1[C@@H]2CC[C@]2(C)C(=O)/C(=C/c3cccc(OCCN4CCOCC4)c3)C[C@@H]12`, the GI50 in the experiment on HT29 colon was 2.87 µM; in the experiment on HCT-15 colon it was 5.29 µM; with HOP-92 NSCLC, 10.2 µM; in the experiment on MDA-MB-231 breast, 11.6 µM; in the experiment on NCI-H522 lung it was 8 µM; in the experiment with T-47D breast, 2.9 µM. Further, the GI50 in the experiment on EKVX NSCLC was 5.57 µM; with OVCAR-3 ovarian, 3.91 µM; in the experiment with CCRF-CEM leukemia it was 4.49 µM; with 786-0 renal, 12.8 µM. Also, the TGI with HT29 colon is 16.2 µM; in the experiment on HCT-15 colon it was 42.1 µM; in the experiment on HOP-92 NSCLC, 31.7 µM; in the experiment with MDA-MB-231 breast it was 42.3 µM; in the experiment with NCI-H522 lung, 26.4 µM; in the experiment on T-47D breast, > 100 µM. The TGI in the experiment with EKVX NSCLC is 42.3 µM; in the experiment with OVCAR-3 ovarian, 16 µM; with CCRF-CEM leukemia, 28.6 µM; in the experiment with 786-0 renal, > 100 µM.
